Here are results for 20 molecules from patent US10590140B2, “Tetrahydropyrimidodiazepine and dihydropyridodiazepine compounds for treating pain and pain related conditions” (ESTEVE PHARMACEUTICALS, S.A., priority 2016, dated 2020).

Where only a bound is given, the exact number is not on record here.

human α2δ-1 subunit of Cav2.2 calcium channel, sequence (P54289 25-1103): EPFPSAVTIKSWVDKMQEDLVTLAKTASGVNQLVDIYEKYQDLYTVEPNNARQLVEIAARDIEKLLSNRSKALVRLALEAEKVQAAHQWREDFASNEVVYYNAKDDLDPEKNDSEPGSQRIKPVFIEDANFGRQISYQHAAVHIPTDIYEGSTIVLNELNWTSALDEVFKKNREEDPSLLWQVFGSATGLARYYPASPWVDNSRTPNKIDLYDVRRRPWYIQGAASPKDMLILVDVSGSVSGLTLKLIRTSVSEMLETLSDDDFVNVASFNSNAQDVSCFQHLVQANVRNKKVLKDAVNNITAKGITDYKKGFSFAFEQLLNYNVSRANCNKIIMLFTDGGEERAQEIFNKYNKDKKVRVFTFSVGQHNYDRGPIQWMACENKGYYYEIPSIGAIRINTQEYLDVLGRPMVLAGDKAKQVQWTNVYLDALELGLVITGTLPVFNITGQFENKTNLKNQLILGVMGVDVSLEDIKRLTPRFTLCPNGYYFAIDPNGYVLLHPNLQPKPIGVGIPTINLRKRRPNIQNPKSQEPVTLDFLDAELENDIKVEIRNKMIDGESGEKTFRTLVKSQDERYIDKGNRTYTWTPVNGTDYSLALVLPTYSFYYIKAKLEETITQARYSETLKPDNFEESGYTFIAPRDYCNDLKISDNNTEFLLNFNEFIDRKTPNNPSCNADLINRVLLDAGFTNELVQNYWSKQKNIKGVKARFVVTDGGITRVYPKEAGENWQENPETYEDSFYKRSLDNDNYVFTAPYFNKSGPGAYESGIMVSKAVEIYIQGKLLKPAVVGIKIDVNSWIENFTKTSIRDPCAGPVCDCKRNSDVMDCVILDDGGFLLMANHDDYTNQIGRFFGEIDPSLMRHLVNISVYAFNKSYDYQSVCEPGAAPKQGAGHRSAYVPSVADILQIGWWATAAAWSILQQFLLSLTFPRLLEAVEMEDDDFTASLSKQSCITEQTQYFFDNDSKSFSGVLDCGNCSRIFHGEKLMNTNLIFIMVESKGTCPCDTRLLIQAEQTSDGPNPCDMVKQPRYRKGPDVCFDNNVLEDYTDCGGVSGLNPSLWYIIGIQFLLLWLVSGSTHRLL

The target of this assay is human α2δ-1 subunit of Cav2.2 calcium channel (Homo sapiens (Human), UniProt P54289). Kind of assay: Binding assay to human α2δ-1 subunit of Cav2.2 calcium channel ([3H]-Gabapentin). The settings on record: binding to α2δ-1, [3H]-Gabapentin; read-out: Ki (nM) α2δ-1. An outline of the steps:
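[3H]-gabapentin binding, 60 min at 27° C; nonspecific binding defined with 10 μM pregabalin. Terminated by filtration on PEI-presoaked GF/C filters, ice-cold 50 mM Tris-HCl pH 7.4 washes, then scintillation counting.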
Consider `CCNc1ncc2c(n1)N(C)CCN(c1cccc(CCO)c1)C2=O` [Example 113, 2-(ethylamino)-6-(3-(2-hydroxyethyl)phenyl)-9-methyl-6,7,8,9-tetrahydro-5H-pyrimido[4,5-e][1,4]diazepin-5-one], for which the inhibition constant (Ki) was > 3000 nM.

Consider `CCNc1ncc2c(n1)N(C)CCN(c1ccc(OC)cc1)C2=O` [Example 114, 2-(ethylamino)-6-(4-methoxyphenyl)-9-methyl-6,7,8,9-tetrahydro-5H-pyrimido[4,5-e][1,4]diazepin-5-one], for which the inhibition constant Ki was > 3000 nM.

Consider `CCNc1ncc2c(n1)N(C)CCN(c1ccc(O[Si](C)(C)C(C)(C)C)cc1)C2=O` [Example 115], for which the Ki was > 3000 nM.

Consider `CCNc1ncc2c(n1)N(C)CCN(c1cccc(-n3cc(CN(C)C(=O)OC(C)(C)C)nn3)c1)C2=O` [Example 116, tert-butyl ((1-(3-(2-(ethylamino)-9-methyl-5-oxo-5,7,8,9-tetrahydro-6H-pyrimido[4,5-e][1,4]diazepin-6-yl)phenyl)-1H-1,2,3-triazol-4-yl)methyl)(methyl) carbamate], for which the Ki is > 3000 nM.

In the case of `CCNc1ncc2c(n1)N(C)CCN(c1cccc(-n3cc(CNC(=O)OC(C)(C)C)nn3)c1)C2=O` [Example 117, tert-butyl ((1-(3-(2-(ethylamino)-9-methyl-5-oxo-5,7,8,9-tetrahydro-6H-pyrimido[4,5-e][1,4]diazepin-6-yl)phenyl)-1H-1,2,3-triazol-4-yl)methyl)carbamate], the inhibitory constant (Ki) is > 3000 nM.

With `CCNc1ncc2c(n1)N(C)CCN(c1cccc(-n3cc(CN(Cc4ccccc4)C(=O)OC(C)(C)C)nn3)c1)C2=O` [Example 118, tert-butyl benzyl((1-(3-(2-(ethylamino)-9-methyl-5-oxo-5,7,8,9-tetrahydro-6H-pyrimido[4,5-e][1,4]diazepin-6-yl)phenyl)-1H-1,2,3-triazol-4-yl)methyl)carbamate], the inhibition constant (Ki) was > 3000 nM.

Take `CCNc1ncc2c(n1)N(C)CCN(c1cccc(-n3cc(C(OCC)OCC)nn3)c1)C2=O` [Example 119, 6-(3-(4-(diethoxymethyl)-1H-1,2,3-triazol-1-yl)phenyl)-2-(ethylamino)-9-methyl-6,7,8,9-tetrahydro-5H-pyrimido[4,5-e][1,4]diazepin-5-one]: the inhibition constant (Ki) is > 3000 nM.

`CCNc1ncc2c(n1)N(C)CCN(c1cccc(-n3cc(CCN(C)C(=O)OC(C)(C)C)nn3)c1)C2=O` [Example 120, tert-butyl (2-(1-(3-(2-(ethylamino)-9-methyl-5-oxo-5,7,8,9-tetrahydro-6H-pyrimido[4,5-e][1,4]diazepin-6-yl)phenyl)-1H-1,2,3-triazol-4-yl)ethyl)(methyl) carbamate]: the Ki was > 3000 nM.

With `CCNc1ncc2c(n1)N(C)CCN(c1cccc(Cn3cc(CN(C)C(=O)OC(C)(C)C)nn3)c1)C2=O` [Example 121, tert-butyl ((1-(3-(2-(ethylamino)-9-methyl-5-oxo-5,7,8,9-tetrahydro-6H-pyrimido[4,5-e][1,4]diazepin-6-yl)benzyl)-1H-1,2,3-triazol-4-yl)methyl)(methyl) carbamate], the Ki was > 3000 nM.

Consider `CCNc1ncc2c(n1)N(C)CCN(c1cccc(-n3cc(CN(C)C(=O)OC(C)(C)C)cn3)c1)C2=O` [Example 122, tert-butyl ((1-(3-(2-(ethylamino)-9-methyl-5-oxo-5,7,8,9-tetrahydro-6H-pyrimido[4,5-e][1,4]diazepin-6-yl)phenyl)-1H-pyrazol-4-yl)methyl)(methyl) carbamate], for which the inhibitory constant (Ki) is > 3000 nM.

Regarding `CCNc1ncc2c(n1)N(C)CCN(c1cccc(-n3cnc(CN(C)C(=O)OC(C)(C)C)c3)c1)C2=O` [Example 123, tert-butyl ((1-(3-(2-(ethylamino)-9-methyl-5-oxo-5,7,8,9-tetrahydro-6H-pyrimido[4,5-e][1,4]diazepin-6-yl)phenyl)-1H-imidazol-4-yl)methyl)(methyl) carbamate], the Ki was > 3000 nM.

As for `CCNc1ncc2c(n1)N(C)CCN(c1cccc(-c3nnc(CN(C)C(=O)OC(C)(C)C)o3)c1)C2=O` [Example 124, tert-butyl ((5-(3-(2-(ethylamino)-9-methyl-5-oxo-5,7,8,9-tetrahydro-6H-pyrimido[4,5-e][1,4]diazepin-6-yl)phenyl)-1,3,4-oxadiazol-2-yl)methyl)(methyl) carbamate], the Ki was > 3000 nM.

On to `CCNc1ncc2c(n1)N(C)CCN(c1ccccc1OC(CCN(C)C(=O)OC(C)(C)C)c1ccccc1)C2=O` (centres unmarked) [Example 125, tert-butyl (3-(2-(2-(ethylamino)-9-methyl-5-oxo-5,7,8,9-tetrahydro-6H-pyrimido[4,5-e][1,4]diazepin-6-yl)phenoxy)-3-phenylpropyl)(methyl) carbamate], for which the Ki was > 3000 nM.

For the molecule `CCNc1ncc2c(n1)N(C)CCN(c1cccc(COC(CCN(C)C(=O)OC(C)(C)C)C(C)C)c1)C2=O` (centres unmarked) [Example 126, tert-butyl (3-((3-(2-(ethylamino)-9-methyl-5-oxo-5,7,8,9-tetrahydro-6H-pyrimido[4,5-e][1,4]diazepin-6-yl)benzyl)oxy)-4-methylpentyl)(methyl) carbamate], the inhibitory constant (Ki) is > 3000 nM.

Regarding `CCNc1ncc2c(n1)N(C)CCN(c1cccc(COC(C)CCN(C)C(=O)OC(C)(C)C)c1)C2=O` (centres unmarked) [Example 127, tert-butyl (3-((3-(2-(ethylamino)-9-methyl-5-oxo-5,7,8,9-tetrahydro-6H-pyrimido[4,5-e][1,4]diazepin-6-yl)benzyl)oxy)butyl) (methyl)carbamate], the Ki is > 3000 nM.

As for `CCNc1ncc2c(n1)N(C)CCN(c1cccc(OC(CCN(C)C(=O)OC(C)(C)C)c3ccccn3)c1)C2=O` (centres unmarked) [Example 128, tert-butyl (3-(3-(2-(ethylamino)-9-methyl-5-oxo-5,7,8,9-tetrahydro-6H-pyrimido[4,5-e][1,4]diazepin-6-yl)phenoxy)-3-(pyridin-2-yl)propyl)(methyl) carbamate], the inhibition constant Ki was > 3000 nM.

In the case of `CCNc1ncc2c(n1)N(C)CCN(c1cccc(OC(CCN(C)C(=O)OC(C)(C)C)c3cccnc3)c1)C2=O` (centres unmarked) [Example 129, tert-butyl (3-(3-(2-(ethylamino)-9-methyl-5-oxo-5,7,8,9-tetrahydro-6H-pyrimido[4,5-e][1,4]diazepin-6-yl)phenoxy)-3-(pyridin-3-yl)propyl)(methyl) carbamate], the Ki is > 3000 nM.

For the molecule `CN(CC[C@@H](OCc1cccc(N2CCN(C)c3nc(N)ncc3C2=O)c1)c1ccccc1)C(=O)OC(C)(C)C` [Example 130, tert-butyl (R)-(3-((3-(2-amino-9-methyl-5-oxo-5,7,8,9-tetrahydro-6H-pyrimido[4,5-e][1,4]diazepin-6-yl)benzyl)oxy)-3-phenylpropyl)(methyl) carbamate], the Ki was > 3000 nM.

Take `CN(CC[C@@H](OCc1cccc(N2CCN(C)c3nc(N(C)C)ncc3C2=O)c1)c1ccccc1)C(=O)OC(C)(C)C` [Example 131, tert-butyl (R)-(3-((3-(2-(dimethylamino)-9-methyl-5-oxo-5,7,8,9-tetrahydro-6H-pyrimido[4,5-e][1,4]diazepin-6-yl)benzyl)oxy)-3-phenylpropyl)(methyl) carbamate]: the Ki is > 3000 nM.

Take `CNc1ncc2c(n1)N(C)CCN(c1cccc(CO[C@H](CCN(C)C(=O)OC(C)(C)C)c3ccccc3)c1)C2=O` [Example 132, tert-butyl (R)-methyl(3-((3-(9-methyl-2-(methylamino)-5-oxo-5,7,8,9-tetrahydro-6H-pyrimido[4,5-e][1,4]diazepin-6-yl)benzyl)oxy)-3-phenylpropyl)carbamate]: the Ki was > 3000 nM.
